Data taken from patent US4370489A, “Herbicidal compounds” (Hoechst Aktiengesellschaft, priority 1976, dated 1983).

Key:
Digitaria [1] = assay: Pre-emergence greenhouse pot trial, Digitaria (Example V, Table V); format: in vivo
Method: (§1) The results and also the results of all following examples were evaluated 4 weeks later according to the following scheme:
(§2) In a greenhouse the compounds to be tested were sprayed on the surface of the soil directly after sowing. […] Dicotyledonous crop plants (the same as used in Example I) were not damaged by the applied amounts.
(§3) Effect on weed grasses in a pre-emergence process (evalua-
(§4) tion scheme) experiment in pots in the greenhouse.

Avena fatua [2] = assay: Post-emergence treatment, pots on a site without roof, Avena fatua (Example IV, Table IV); format: in vivo; conditions: post-emergence, emulsion concentrate
Method: as §1
(§5) In summer a further experiment was carried through under similar conditions to compare the effect of compound 1a with that of comparative compound A. Both compounds were used in the form of an emulsion concentrate (Table IV).
(§6) Post-emergence treatment (evaluation scheme); experiment
(§7) in pots on a site without roof

wild oat = assay: Field trial in wild oat, post-emergence treatment (Example VI, Table VI); format: in vivo; conditions: for efficiency in % (counting of panicles) / evaluation 5 weeks after treatment: post-emergence
Method: In a field trial compound 1a of the invention was sprayed in the form of a 36% wettable powder formulation onto wild oat (single system, natural growth) after the plants had developed 3 or 4 leaves.
Three lots each were treated with different concentrations of the active compound and the comparative compound, the amount of spray liquor applied being 600 liters per hectare. Besides the usual visual evaluation at the end of the trial, the number of panicles per square meter was counted. In the untreated lots 400 to 500 panicles were counted per square meter, i.e. the field was heavily infected.
The relations are still more distinct when the amount of active compound required for a 90% effect is determined by the probit method (graphical evaluation) mentioned in Example II.

Digitaria [3] = assay: Post-emergence greenhouse pot trial, Digitaria (Example I, Table I); format: in vivo; conditions: greenhouse pots, 4 weeks
Method: (§8) Seeds of weed grasses were sown in pots filled with loamy soil and placed in the greenhouse for germination and emergence. As soon as the plants had developed 3 or 4 leaves, they were sprayed with wettable powder formulations, suspended in water, of compounds according to the invention.
as §1
(§9) 4 is still considered an acceptable herbicidal effect in weeds and a satisfactory preserving effect in crop plants (cf. Bolle, Nachrichtenblatt des Deutschen Pflanzenschutzdienstes 16, 1964, pages 92-94).
(§10) Effect on weed grasses in a post-emergence trial in pots
(§11) in the greenhouse (Evaluation scheme)

Setaria [4] = assay: Post-emergence greenhouse pot trial, Setaria (Example I, Table I); format: in vivo; conditions: greenhouse pots, 4 weeks
Method: as §8, §1, §9, §10, §11

spring wheat [5] = assay: Post-emergence trial in two stages, pots on a site without roof, spring wheat (Example II, Table II); format: in vivo
Method: as §1
(§12) The amounts of active compound required for a 90% effect, determined by the probit method (cf. Bliss, Annals of Applied Biology, 22 1935), show very distincly the difference between the compound of the invention and the comparative compound. […] None of the compounds did any harm to the wheat.
(§13) Post-emergence treatment in two different stages of development
(§14) Experiments in pots on a site without roof
(§15) stage 1: 3 to 4 leaves with beginning growth of side
(§16) stage 2: main tillering to terminated tillering.

Setaria [6] = assay: Pre-emergence greenhouse pot trial, Setaria (Example V, Table V); format: in vivo
Method: as §1, §2, §3, §4

Alopecurus myos. = assay: Post-emergence treatment, pots on a site without roof, blackgrass (Example IV, Table IV); format: in vivo, annual black-grass (Alopecurus); conditions: for Effect (evaluation scheme), Alopecurus myos.: post-emergence, emulsion concentrate
Method: as §1, §5, §6, §7

Lolium [7] = assay: Post-emergence greenhouse pot trial, Lolium (Example I, Table I); format: in vivo; conditions: greenhouse pots, 4 weeks
Method: as §8, §1, §9, §10, §11

spring barley = assay: Post-emergence treatment, pots on a site without roof, spring barley (Example IV, Table IV); format: in vivo; conditions: emulsion concentrate; further: ranges in brackets are in %
Method: as §1, §5, §6, §7

Lolium [8] = assay: Pre-emergence greenhouse pot trial, Lolium (Example V, Table V); format: in vivo
Method: as §1, §2, §3, §4

Avena fatua [9] = assay: Post-emergence trial in two stages, pots on a site without roof, wild oat (Example II, Table II); format: in vivo; conditions: for 90% effective dose: probit method; for Effect on wild oat (evaluation), Avena fatua: post-emergence
Method: as §1, §12, §13, §14, §15, §16

sugar beet = assay: Post emergence treatment in two stages, boxes on a site without roof, sugar beet (Table III); format: in vivo; conditions: 0.9 kg/hectare
Method: as §1
(§17) Effect on wild oat and sugar beet
(§18) Post emergence treatment in two stages of development
(§19) boxes 20 × 24 × 22 cm in size on a site without roof

Alopecurus = assay: Post-emergence greenhouse pot trial, annual blackgrass (Example I, Table I); format: in vivo, annual blackgrass (Alopecurus); conditions: for Effect on weed grasses (evaluation scheme number), Alopecurus: greenhouse pots, 4 weeks
Method: as §8, §1, §9, §10, §11

Avena ludoviciana = assay: Post-emergence treatment, pots on a site without roof, Avena ludoviciana (Example IV, Table IV); format: in vivo; conditions: post-emergence, emulsion concentrate
Method: as §1, §5, §6, §7

spring wheat [10] = assay: Post-emergence treatment, pots on a site without roof, spring wheat (Example IV, Table IV); format: in vivo; conditions: emulsion concentrate; further: ranges in brackets are in %
Method: as §1, §5, §6, §7

Echinochloa [11] = assay: Pre-emergence greenhouse pot trial, Echinochloa (Example V, Table V); format: in vivo
Method: as §1, §2, §3, §4

Echinochloa [12] = assay: Post-emergence greenhouse pot trial, Echinochloa (Example I, Table I); format: in vivo; conditions: greenhouse pots, 4 weeks
Method: as §8, §1, §9, §10, §11

Avena fatua [13] = assay: Post emergence treatment in two stages, boxes on a site without roof, wild oat (Table III); format: in vivo; conditions: 0.9 kg/hectare
Method: as §1, §17, §18, §19

COC(=O)C(C)Oc1ccc(Oc2ccc(Cl)cc2Cl)cc1 (stereo not drawn) [A, methyl-2-[4-(2',4'-dichlorophenoxy)-phenoxy]-propionate, reference compound]
8 (32.5 to <65.0): Effect (evaluation scheme), Avena fatua (Avena fatua [2]; 0.225 kg/hectare) | Effect (evaluation scheme), Avena fatua (Avena fatua [2]; 0.45 kg/hectare) | evaluation 5 weeks after treatment (wild oat; 0.54 kg/hectare) | Effect on weed grasses (evaluation scheme number), Digitaria (Digitaria [3]; 0.15 kg/hectare) | Effect on weed grasses (evaluation scheme), Setaria (Setaria [6]; 0.62 kg/hectare) | Effect (evaluation scheme), Alopecurus myos. (Alopecurus myos.; 0.225 kg/hectare) | Effect on wild oat (evaluation), Avena fatua (Avena fatua [9]; stage 1, 0.225 kg/hectare) | Effect on wild oat (evaluation), Avena fatua (Avena fatua [9]; stage 2, 0.112 kg/hectare) | Effect on weed grasses (evaluation scheme number), Alopecurus (Alopecurus; 0.15 kg/hectare)
1 (100): Effect on weed grasses (evaluation scheme number), Digitaria (Digitaria [3]; 2.5 kg/hectare) | Effect on weed grasses (evaluation scheme number), Setaria (Setaria [4]; 2.5 kg/hectare)
65.2%: efficiency in % (counting of panicles) (wild oat; 0.90 kg/hectare)
6 (75.0 to <85.0): Effect (evaluation scheme), Avena fatua (Avena fatua [2]; 0.9 kg/hectare) | evaluation 5 weeks after treatment (wild oat; 0.90 kg/hectare) | Effect on weed grasses (evaluation scheme), Setaria (Setaria [6]; 1.25 kg/hectare) | Effect (evaluation scheme), Alopecurus myos. (Alopecurus myos.; 0.45 kg/hectare) | Effect on weed grasses (evaluation scheme), Lolium (Lolium [8]; 0.62 kg/hectare) | Effect (evaluation scheme), Avena ludoviciana (Avena ludoviciana; 0.9 kg/hectare)
79%: degree of damage % (evaluation by weight), Avena fatua (Avena fatua [13]; start of tillering)
99%: degree of damage % (evaluation by weight), Avena fatua (Avena fatua [13]; 3-leaf stage)
4 (90.0 to <95.0): Effect on weed grasses (evaluation scheme), Digitaria (Digitaria [1]; 1.25 kg/hectare) | Effect on weed grasses (evaluation scheme number), Setaria (Setaria [4]; 0.15 kg/hectare) | Effect (evaluation scheme), Alopecurus myos. (Alopecurus myos.; 0.9 kg/hectare) | Effect on weed grasses (evaluation scheme number), Alopecurus (Alopecurus; 2.5 kg/hectare) | Effect on weed grasses (evaluation scheme), Echinochloa (Echinochloa [11]; 0.62 kg/hectare) | Effect on weed grasses (evaluation scheme number), Echinochloa (Echinochloa [12]; 0.15 kg/hectare)
0.82 kg per hectare: 90% effective dose (Avena fatua [9]; stage 2 (main tillering to terminated tillering))
1 (0): evaluation, spring wheat (spring wheat [5]; stage 1, 0.112 kg/hectare) | evaluation, spring wheat (spring wheat [5]; stage 1, 0.225 kg/hectare) | evaluation, spring wheat (spring wheat [5]; stage 1, 0.45 kg/hectare) | evaluation, spring wheat (spring wheat [5]; stage 1, 0.9 kg/hectare) | evaluation, spring wheat (spring wheat [5]; stage 2, 0.112 kg/hectare) | evaluation, spring wheat (spring wheat [5]; stage 2, 0.225 kg/hectare) | evaluation, spring wheat (spring wheat [5]; stage 2, 0.45 kg/hectare) | evaluation, spring wheat (spring wheat [5]; stage 2, 0.9 kg/hectare) | evaluation scheme, spring barley (spring barley; 0.225 kg/hectare) | evaluation scheme, spring barley (spring barley; 0.45 kg/hectare) | evaluation scheme, spring barley (spring barley; 0.9 kg/hectare) | evaluation scheme, spring wheat (spring wheat [10]; 0.225 kg/hectare) | evaluation scheme, spring wheat (spring wheat [10]; 0.45 kg/hectare) | evaluation scheme, spring wheat (spring wheat [10]; 0.9 kg/hectare)
9 (0 to <32.5): Effect on wild oat (evaluation), Avena fatua (Avena fatua [9]; stage 1, 0.112 kg/hectare)
5 (85.0 to <90.0): Effect on weed grasses (evaluation scheme number), Lolium (Lolium [7]; 0.62 kg/hectare) | Effect on weed grasses (evaluation scheme), Lolium (Lolium [8]; 1.25 kg/hectare) | Effect on wild oat (evaluation), Avena fatua (Avena fatua [9]; stage 1, 0.45 kg/hectare) | Effect on wild oat (evaluation), Avena fatua (Avena fatua [9]; stage 2, 0.45 kg/hectare) | Effect on wild oat (evaluation), Avena fatua (Avena fatua [9]; stage 2, 0.9 kg/hectare) | Effect on wild oat, Avena fatua, number (Avena fatua [13]; start of tillering)
2 (0 to 2.5): sugar beet number (sugar beet; 2-leaf stage) | sugar beet number (sugar beet; 4-leaf stage)
2.7 kg/hectare: amount of active compound required for a 90% effect (wild oat; without wetting agent, probit method (graphical evaluation))
little: response of annual black-grass (Alopecurus) (Alopecurus myos.; in words)
3 (95.0 to <.97.5): Effect on weed grasses (evaluation scheme number), Digitaria (Digitaria [3]; 0.62 kg/hectare) | Effect on weed grasses (evaluation scheme number), Lolium (Lolium [7]; 2.5 kg/hectare) | Effect on wild oat (evaluation), Avena fatua (Avena fatua [9]; stage 1, 0.9 kg/hectare) | Effect on weed grasses (evaluation scheme), Echinochloa (Echinochloa [11]; 1.25 kg/hectare) | Effect on weed grasses (evaluation scheme number), Echinochloa (Echinochloa [12]; 0.62 kg/hectare)
7 (65.0 to <75.0): Effect on weed grasses (evaluation scheme), Digitaria (Digitaria [1]; 0.62 kg/hectare) | evaluation 5 weeks after treatment (wild oat; 0.72 kg/hectare) | Effect on weed grasses (evaluation scheme number), Lolium (Lolium [7]; 0.15 kg/hectare) | Effect on wild oat (evaluation), Avena fatua (Avena fatua [9]; stage 2, 0.225 kg/hectare) | Effect on weed grasses (evaluation scheme number), Alopecurus (Alopecurus; 0.62 kg/hectare) | Effect (evaluation scheme), Avena ludoviciana (Avena ludoviciana; 0.225 kg/hectare) | Effect (evaluation scheme), Avena ludoviciana (Avena ludoviciana; 0.45 kg/hectare)
50.7%: efficiency in % (counting of panicles) (wild oat; 0.54 kg/hectare)
2 (97.5 to <100): Effect on weed grasses (evaluation scheme number), Setaria (Setaria [4]; 0.62 kg/hectare) | Effect on weed grasses (evaluation scheme number), Echinochloa (Echinochloa [12]; 2.5 kg/hectare) | Effect on wild oat, Avena fatua, number (Avena fatua [13]; 3-leaf stage)
2.5 kg per hectare: amount sufficient/required to keep blackgrass satisfactorily under control (Alopecurus; greenhouse)
0.55 kg per hectare: 90% effective dose (Avena fatua [9]; stage 1 (3 to 4 leaves with beginning growth of side))
insufficient: effect on wild oat (wild oat; 0.90 kg per hectare, in words)
59.9%: efficiency in % (counting of panicles) (wild oat; 0.72 kg/hectare)
